Tests used:
pigweed = assay: Test C postemergence; assay type: in vivo, Amaranthus retroflexus
Outline: (§1)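 Greenhouse pot test: preemergence application onto freshly seeded loam/sand mix, postemergence application onto seedlings (1–4 leaves, 2–18 cm) in peat-vermiculite substrate. Responses scored visually 13 to 15 days later relative to controls, where 0 means no effect and 100 means complete control; a dash indicates no result.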

oat, wild = assay: Test C postemergence; assay type: in vivo, Avena fatua
Outline: as §1

foxtail, giant = assay: Test C postemergence; assay type: in vivo, Setaria faberii
Outline: as §1

lambsquarters [1] = assay: Test C postemergence; assay type: in vivo, Chenopodium album
Outline: as §1

chickweed = assay: Test C postemergence; assay type: in vivo, Stellaria media
Outline: as §1

morningglory = assay: Test C postemergence; assay type: in vivo, Ipomoea coccinea
Outline: as §1

galium = assay: Test C postemergence; assay type: in vivo, Galium aparine
Outline: as §1

nutsedge, yellow = assay: Test C postemergence; assay type: in vivo, Cyperus esculentus
Outline: as §1

kochia = assay: Test C postemergence; assay type: in vivo, Kochia scoparia
Outline: as §1

velvetleaf = assay: Test C postemergence; assay type: in vivo, Abutilon theophrasti
Outline: as §1

ragweed = assay: Test C postemergence; assay type: in vivo, Ambrosia elation
Outline: as §1

barnyardgrass = assay: Test C postemergence; assay type: in vivo, Echinochloa crus-galli
Outline: as §1

soybean = assay: Test C postemergence; assay type: in vivo, Glycine max
Outline: as §1

lambsquarters [2] = assay: Test C preemergence; assay type: in vivo, Chenopodium album
Outline: as §1

ryegrass, Italian = assay: Test C postemergence; assay type: in vivo, Lolium multiflorum
Outline: as §1

waterhemp = assay: Test C postemergence; assay type: in vivo, Amaranthus rudis
Outline: as §1

[3] = Postemergence, 31 g ai/ha, visually evaluated after 13 to 15 days
[4] = postemergence, 62 g ai/ha, scale 0 to 100
[5] = postemergence, 125 g ai/ha, scale 0 to 100, 0 no effect, 100 complete control

SMILES: CCc1cc(C(=O)NOC(C)C)nn1Cc1ccnc(C(F)(F)F)c1 [Compound 101]
- Plant response rating (scale of 0 to 100), Pigweed (pigweed; Postemergence, 16 g ai/ha): 20
- Plant response rating (scale of 0 to 100 where 0 is no effect and 100 is complete control), Pigweed (pigweed; [3]): 35
- Pigweed plant response rating (pigweed; [4]): 45
- Plant response rating, Pigweed (pigweed; [5]): 75
- Plant response rating (scale of 0 to 100), Oat, Wild (oat, wild; Postemergence, 16 g ai/ha): 0
- Plant response rating (scale of 0 to 100 where 0 is no effect and 100 is complete control), Oat, Wild (oat, wild; [3]): 0
- Oat, Wild plant response rating (oat, wild; [4]): 5
- Plant response rating, Oat, Wild (oat, wild; [5]): 10
- Plant response rating (scale of 0 to 100), Foxtail, Giant (foxtail, giant; Postemergence, 16 g ai/ha): 10
- Plant response rating (scale of 0 to 100 where 0 is no effect and 100 is complete control), Foxtail, Giant (foxtail, giant; [3]): 10
- Foxtail, Giant plant response rating (foxtail, giant; [4]): 30
- Plant response rating, Foxtail, Giant (foxtail, giant; [5]): 65
- Plant response rating (scale of 0 to 100), Lambsquarters (lambsquarters [1]; Postemergence, 16 g ai/ha): 50
- Plant response rating (scale of 0 to 100 where 0 is no effect and 100 is complete control), Lambsquarters (lambsquarters [1]; [3]): 50
- Lambsquarters plant response rating (lambsquarters [1]; [4]): 65
- Plant response rating, Lambsquarters (lambsquarters [1]; [5]): 75
- Plant response rating (scale of 0 to 100), Chickweed (chickweed; Postemergence, 16 g ai/ha): 45
- Plant response rating (scale of 0 to 100 where 0 is no effect and 100 is complete control), Chickweed (chickweed; [3]): 50
- Chickweed plant response rating (chickweed; [4]): 50
- Plant response rating, Chickweed (chickweed; [5]): 50
- Plant response rating (scale of 0 to 100), Morningglory (morningglory; Postemergence, 16 g ai/ha): 60
- Plant response rating (scale of 0 to 100 where 0 is no effect and 100 is complete control), Morningglory (morningglory; [3]): 60
- Morningglory plant response rating (morningglory; [4]): 65
- Plant response rating, Morningglory (morningglory; [5]): 95
- Plant response rating (scale of 0 to 100), Galium (galium; Postemergence, 16 g ai/ha): 20
- Plant response rating (scale of 0 to 100 where 0 is no effect and 100 is complete control), Galium (galium; [3]): 35
- Galium plant response rating (galium; [4]): 50
- Plant response rating, Galium (galium; [5]): 55
- Plant response rating (scale of 0 to 100), Nutsedge, Yellow (nutsedge, yellow; Postemergence, 16 g ai/ha): 5
- Plant response rating (scale of 0 to 100 where 0 is no effect and 100 is complete control), Nutsedge, Yellow (nutsedge, yellow; [3]): 5
- Nutsedge, Yellow plant response rating (nutsedge, yellow; [4]): 5
- Plant response rating, Nutsedge, Yellow (nutsedge, yellow; [5]): 40
- Plant response rating (scale of 0 to 100), Kochia (kochia; Postemergence, 16 g ai/ha): 40
- Plant response rating (scale of 0 to 100 where 0 is no effect and 100 is complete control), Kochia (kochia; [3]): 60
- Kochia plant response rating (kochia; [4]): 65
- Plant response rating, Kochia (kochia; [5]): 65
- Plant response rating (scale of 0 to 100), Velvetleaf (velvetleaf; Postemergence, 16 g ai/ha): 10
- Plant response rating (scale of 0 to 100 where 0 is no effect and 100 is complete control), Velvetleaf (velvetleaf; [3]): 15
- Velvetleaf plant response rating (velvetleaf; [4]): 25
- Plant response rating, Velvetleaf (velvetleaf; [5]): 30
- Plant response rating (scale of 0 to 100), Ragweed (ragweed; Postemergence, 16 g ai/ha): 15
- Plant response rating (scale of 0 to 100 where 0 is no effect and 100 is complete control), Ragweed (ragweed; [3]): 15
- Ragweed plant response rating (ragweed; [4]): 20
- Plant response rating, Ragweed (ragweed; [5]): 75
- Plant response rating (scale of 0 to 100), Barnyardgrass (barnyardgrass; Postemergence, 16 g ai/ha): 5
- Plant response rating (scale of 0 to 100 where 0 is no effect and 100 is complete control), Barnyardgrass (barnyardgrass; [3]): 5
- Barnyardgrass plant response rating (barnyardgrass; [4]): 5
- Plant response rating, Barnyardgrass (barnyardgrass; [5]): 5
- Plant response rating (scale of 0 to 100), Soybean (soybean; Postemergence, 16 g ai/ha): 15
- Plant response rating (scale of 0 to 100 where 0 is no effect and 100 is complete control), Soybean (soybean; [3]): 20
- Soybean plant response rating (soybean; [4]): 25
- Plant response rating, Soybean (soybean; [5]): 40
- Plant response rating, Lambsquarters (lambsquarters [2]; Preemergence, 16 g ai/ha, scale 0 to 100): 85
- Lambsquarters plant response rating (lambsquarters [2]; preemergence, 31 g ai/ha, visual rating, scale 0 to 100 (0 no effect, 100 complete control), 13 to 15 days): 85
- Plant response rating, Lambsquarters (lambsquarters [2]; preemergence, 62 g ai/ha, 13 to 15 days, scale 0 to 100, 0 = no effect, 100 = complete control): 85
- Lambsquarters plant response rating (lambsquarters [2]; preemergence, 125 g ai/ha, scale 0 to 100, 0 is no effect, 100 is complete control): 95
- Plant response rating (scale of 0 to 100), Ryegrass, Italian (ryegrass, Italian; Postemergence, 16 g ai/ha): 5
- Plant response rating (scale of 0 to 100 where 0 is no effect and 100 is complete control), Ryegrass, Italian (ryegrass, Italian; [3]): 5
- Ryegrass, Italian plant response rating (ryegrass, Italian; [4]): 5
- Plant response rating, Ryegrass, Italian (ryegrass, Italian; [5]): 10
- Plant response rating (scale of 0 to 100), Waterhemp (waterhemp; Postemergence, 16 g ai/ha): 10
- Plant response rating (scale of 0 to 100 where 0 is no effect and 100 is complete control), Waterhemp (waterhemp; [3]): 30
- Waterhemp plant response rating (waterhemp; [4]): 35
- Plant response rating, Waterhemp (waterhemp; [5]): 75

Source: patent US20150105252A1, “SUBSTITUTED PYRAZOLES AS HERBICIDES” (E I DU PONT DE NEMOURS AND COMPANY, priority 2013, published 2015)
